Data taken from patent US7662977B2, “PI-3 kinase inhibitor prodrugs” (Semafore Pharmaceuticals, Inc., priority 2003, dated 2010).
One block for each compound: values may come before it. Peptide text beside a SMILES is read from it. * marks the point of attachment. X1 = O=C(CCC(=O)*)OC[N+]1(c2cc(=O)c3cccc(-c4ccccc4)c3o2)CCOCC1

Assays:
[1] = Reversibility of prodrugs to compound 1 in aqueous phosphate buffer (LC-MS over time); conditions: for half-life: phosphate buffer
Procedure: Prodrug Compounds were dissolved in water or in DMSO (if not freely soluble in water) and then diluted at least 10-fold into 50 mM phosphate buffer at pH=7.4 or pH=4.8 and allowed to stand at room temperature. The final concentration of the compounds in aqueous environment ranged from 50 to 500 uMolar.

[2] = tested on: EDC-CBF1 endothelial cells; experiment: Tube formation of EDC-CBF1 endothelial cells on Matrigel; format: cell-based; conditions: overnight
Procedure: In this example it was determined to what degree PI 3 kinase inhibitors (including targeted PI3 kinase inhibitor prodrugs) could inhibit tube formation. Matrigel was plated into 12-well plate wells and solidified in 37° C. for 2 hours. 1×10^5 EDC-CBF1 endothelial cells were then put on the top of the Matrigel layer in the presence of PBS, RADfV (cyclic negative control peptide), RGDfV (cyclic positive control peptide), RADS (linear negative control peptide), compound 1, or Compound 1126 at 20° M concentration overnight. Pictures were then taken using a microscope.

J774 macrophages [3] = experiment: Phagocytosis of sensitized sRBCs in J774 macrophages (class I PI-3 kinase-dependent pathway); format: cell-based
nude mice = experiment: Acute toxicity after intravenous injection in nude mice; format: in vivo
Procedure: (§1) In order to prepare the acetoxymethyl quarternary salt of Compound 1101, 1.0 g Compound 1101 was dissolved in 10 ml dry acetonitrile in a glass vial, and 1.0 g bromomethyl acetate (2.0 equivalents) was added and allowed to stir at room temperature overnight. LCMS indicated presence of starting material, so the reaction was heated at 65° C. in an oil bath for 8 hours. The mother liquors were decanted from the solid and the solids washed with a small amount of cold acetonitrile. The solid was dried in a vacuum dessicator overnight. The product was identified as 264 mg of a white solid with a retention time of 2.204 minutes, M+=380 which was 97% pure. […] Additionally, 250 uL of this 32.5 mM solution of compound A040-70 was administered to a nude mouse by oral gavage.
Intravenously administered Compound 1 was determined to have a 100% mortality within 5 minutes of administration in three nude mice at a dose level of 16 mg/kg.

J774 macrophages [4] = experiment: Phagocytosis of sensitized sRBCs in J774 macrophages (class I PI-3 kinase-dependent pathway); format: cell-based; conditions: for phagocytic index (PGI): 5 μM
Procedure: The columns indicate phagocytic index or percentage of cells positive for phagocytic response. The phagocytic index is the number of sRBC's (sheep red blood cells) found per 100 J774 cells and the % of phagocytic cells is the % of J774 cells that have phagocytized at least 1 sRBC. The error bars represent standard deviation of mean.
The bioactivity of LY294002 (Compound 1) was determined by assaying phagocytosis in J774 macrophages, which is a class I PI-3 kinase-dependent pathway. Briefly, […] DMSO control for 1 h in DMEM with 10% FCS and then sensitized sRBCs (sheep red blood cells) was added at a target to effector ratio equal to 100:[…] Cells were exposed to hypotonic shock to remove red blood cells and phagocytosis was determined by measurement of hemoglobin concentration in the cell lysates. […]

[5] = tested on: p53 transcriptional activity; experiment: p53 luciferase (transcriptional activity) in HBECs; format: cell-based; conditions: for induction of p53 luciferase activity versus control: HBECs, Compound 1: 6 hour exposure
Excerpt: This experiment tested the effect of PI 3 kinase inhibitors (Compound 1 and the targeted prodrug version of Compound 1; Compound 1126) on the induction of p53 luciferase activity. The transfection procedure was similar to that described in the literature to monitor p53 transcription.

[6] = tested on: human non-small cell lung cancer cells: H1299; experiment: H1299 non-small cell lung cancer xenograft in nude mice; format: in vivo
Procedure: Male nude mice of 4-6 weeks in age weighing around 30 grams were inoculated subcutaneously in the right flank with 5 million tumor cells (human non-small cell lung cancer cells: H1299) on day 0. After 14 days of allowing the tumors to grow the animals were divided into 3 groups of 5 animals each. One group received vehicle control alone. One group received twice-per-day tail vein injections (i.v) of 50 uL volume of 24.4 millimolar solution of Compound 1126 in phosphate buffered saline corresponding to 25 mg/kg/day dosing level of the active component of the prodrug (i.e. compound 1). The last group received twice-per-day tail vein injections (i.v) of 50 uL volume of 4.9 millimolar solution of Compound 1126 in phosphate buffered saline corresponding to 5 mg/kg/day dosing level of the active component of the prodrug (compound 1). The tumors were measured every three days using calipers to determine the tumor volume and the animals weights were recorded when the animals were sacrificed on day 27. The results are shown in Table 7 and indicate strong tumor volume reduction versus control for both dose levels at the first datapoint only 3 days after treatment (Day 17) and continuing through to the end of the study: […]

[7] = tested on: human brain cancer cell line (U87MG); experiment: U87MG brain cancer xenograft model; format: in vivo; conditions: 25 mg/kg/day; for % Tumor Volume Reduction compared to vehicle only control: treatment from day 7, U87MG xenograft
Procedure: Male nude mice of 4-6 weeks in age weighing around 30 grams were inoculated subcutaneously in the right flank with 5 million tumor cells (human non-small cell lung cancer cells: H1299) on day 0. After 14 days of allowing the tumors to grow the animals were divided into 3 groups of 5 animals each. One group received vehicle control alone. One group received twice-per-day tail vein injections (i.v) of 50 uL volume of 24.4 millimolar solution of Compound 1126 in phosphate buffered saline corresponding to 25 mg/kg/day dosing level of the active component of the prodrug (i.e. compound 1). The last group received twice-per-day tail vein injections (i.v) of 50 uL volume of 4.9 millimolar solution of Compound 1126 in phosphate buffered saline corresponding to 5 mg/kg/day dosing level of the active component of the prodrug (compound 1). The tumors were measured every three days using calipers to determine the tumor volume and the animals weights were recorded when the animals were sacrificed on day 27. The results are shown in Table 7 and indicate strong tumor volume reduction versus control for both dose levels at the first datapoint only 3 days after treatment (Day 17) and continuing through to the end of the study:
An animal study was run as described in Example above except using a human brain cancer cell line (U87MG) and with treatment starting on day 7 such that the first tumor volume measurement occurred on day 10.

[8] = Water solubility / solution in phosphate buffered saline; format: physicochemical
Procedure: as §1

[9] = portion not accumulated in the skeleton; cited from earlier work
[10] = 20 uM, exposure-limited: 20 minute exposure then removal of test solution, solvent blank 163

- half-life ([1]; pH 4.8): > 120 h
- half-life ([1]; pH 7.4): ~10 h
Compound: CC(C)(C)OC(=O)CCC(=O)OC[N+]1(c2cc(=O)c3cccc(-c4ccccc4)c3o2)CCOCC1 [Compound 1110]

- conversion back to compound 1 ([1]; after 24 hours standing at pH=7.0, phosphate buffer): converted completely back to compound 1
Compound: O=C(CCC(=O)OC[N+]1(c2cc(=O)c3cccc(-c4ccccc4)c3o2)CCOCC1)NCc1ccc(C(=O)NCCN(CCN(CP(=O)(O)O)CP(=O)(O)O)CCN(CP(=O)(O)O)CP(=O)(O)O)cc1 [Compound A046-89P]

Compound: O=c1cc(N2CCOCC2)oc2c(-c3ccccc3)cccc12 [Compound 1, 2-(4-morpholinyl)-8-phenyl-4H-1-benzopyran-4-one]
- tube formation compared with PBS control [2]: significantly less
- phagocytic index (PGI) (J774 macrophages [3]; [10]): 190
- mortality (nude mice; nude, mouse, in vivo, iv, 16 mg/kg, 5 min): 100%
- blocking of phagocytosis (J774 macrophages [4]; LY294002 at 10, 1 and 0.1 μM for 1 h, J774 cells): significantly blocked phagocytosis at all concentrations in a dose dependent manner
- induction of p53 luciferase activity versus control [5]: more than two fold higher

Compound: arg-gly-asp-ser [RGDS, reference compound]
- tube formation compared with PBS control [2]: not much difference
- phagocytic index (PGI) (J774 macrophages [3]; [10]): 170

- half-life ([1]; pH 7.4): ~3 h
Compound: COCCOCCOCCOCCC(=O)OC[N+]1(c2cc(=O)c3cccc(-c4ccccc4)c3o2)CCOCC1 [Compound A027-85]

Compound: N=C(N)NCCCC(NC(=O)CCC(=O)OC[N+]1(c2cc(=O)c3cccc(-c4ccccc4)c3o2)CCOCC1)C(=O)NCC(=O)NC(CC(=O)O)C(=O)NC(CO)C(=O)O (centres unmarked) [Compound 1126] (X1-RGDS-OH; configuration not given here)
- % Tumor Volume Reduction compared to vehicle only control ([6]; 5 mg/kg/day i.v. twice per day from day 14, H1299, Day 17): 29%
- % Tumor Volume Reduction compared to vehicle only control ([6]; 5 mg/kg/day i.v. twice per day from day 14, H1299, Day 20): 50%
- % Tumor Volume Reduction compared to vehicle only control ([6]; 5 mg/kg/day i.v. twice per day from day 14, H1299, Day 24): 44%
- % Tumor Volume Reduction compared to vehicle only control ([6]; 5 mg/kg/day i.v. twice per day from day 14, H1299, Day 27): 35%
- % Tumor Volume Reduction compared to vehicle only control ([6]; 25 mg/kg/day i.v. twice per day from day 14, H1299, Day 17): 35%
- % Tumor Volume Reduction compared to vehicle only control ([6]; 25 mg/kg/day i.v. twice per day from day 14, H1299, Day 20): 66%
- % Tumor Volume Reduction compared to vehicle only control ([6]; 25 mg/kg/day i.v. twice per day from day 14, H1299, Day 24): 68%
- % Tumor Volume Reduction compared to vehicle only control ([6]; 25 mg/kg/day i.v. twice per day from day 14, H1299, Day 27): 68%
- animal body weights, control group versus the two treatment groups ([6]; day 27, 25 and 5 mg/kg/day i.v., nude mice): lack of statistically significant difference
- tolerability of twice per day doses ([6]; two week administration period, 25 and 5 mg/kg/day i.v., nude mice): well tolerated
- tube formation compared with PBS control [2]: significantly less
- phagocytic index (PGI) (J774 macrophages [3]; 1 uM, 20 minute incubation, removal, then 2 hours for phagocytosis, 0 uM gave 213): 206
- phagocytic index (PGI) (J774 macrophages [3]; 3 uM, 20 minute incubation, removal, then 2 hours for phagocytosis, 0 uM gave 213): 143
- phagocytic index (PGI) (J774 macrophages [3]; 10 uM, 20 minute incubation, removal, then 2 hours for phagocytosis, 0 uM gave 213): 33
- phagocytic index (PGI) (J774 macrophages [3]; [10]): 50
- mortality (nude mice; intravenous, 22 mg/kg, three nude mice, after 1 hour of observation): 0%
- phagocytic index (PGI) (J774 macrophages [4]; aqueous pH=7 incubation time 2 hours): 88
- phagocytic index (PGI) (J774 macrophages [4]; aqueous pH=7 incubation time 5 hours): 78
- phagocytic index (PGI) (J774 macrophages [4]; aqueous pH=7 incubation time 10 hours): 37
- phagocytic index (PGI) (J774 macrophages [4]; time zero with no preincubation): 140
- induction of p53 luciferase activity versus control [5]: ~3 fold
- toxicity in U87MG xenograft study [7]: desirable lack of toxicity
- % Tumor Volume Reduction compared to vehicle only control ([7]; Day 10): 20.2%
- % Tumor Volume Reduction compared to vehicle only control ([7]; Day 14): 52.6%
- % Tumor Volume Reduction compared to vehicle only control ([7]; Day 17): 38.5%
- % Tumor Volume Reduction compared to vehicle only control ([7]; Day 21): 35.2%

Compound: CN1CC(=O)N(c2ccc(C(=O)OC[N+]3(c4cc(=O)c5cccc(-c6ccccc6)c5o4)CCOCC3)cc2)C1=S [Compound A017-59]
- conversion back to compound 1 ([1]; phosphate buffer at pH=7.4, over a 17 hour period): significant amounts of this compound converted back to compound 1

Compound: CC(=O)OC[N+]1(c2cc(=O)c3cccc(-c4ccccc4)c3o2)CCOCC1 [Compound A040-70]
- half-life ([1]; pH 7.4): ~10 h
- water solubility [8]: very high water solubility
- concentration of solution prepared in phosphate buffered saline ([8]; 27 mg in 1.865 mL PBS, resulting pH around 4): 32.5 millimolar

Compound: 2-(4-morpholinyl)-8-phenyl-4H-1-benzopyran-4-one [Compound 1]
- observed effects after injection (nude mice; mice, injection of 1.04 uMoles): immediate death in three out of three mice

- effect on induction of p53 function by Compound 1 and Compound 1126 ([5]; 20 uM concentration): abrogated
Compound: Cc1ccc(C(=O)Cn2c3c(sc2=N)CCCC3)cc1 [pifithrin alpha]

Compound: O=P([O-])(O)CN(CCN(CP(=O)([O-])O)CP(=O)(O)O)CP(=O)([O-])O.[153Sm+3] [^153Sm-EDTMP]
- time after administration at which excretion is almost complete [9]: ≤ 6 h
